One compound from patent publication US20260158021A1, “PREVENTION AND TREATMENT OF ORGAN FIBROSIS” (CORNELL UNIVERSITY, priority 2018, published 2026) can be followed below.

In assay [1] the test system is mast cells (human mastocytoma cells). Description: Mast cell degranulation after high oxygen and recovery in room air (β-hexosaminadase, tryptase release). It counts as cell-based. As to conditions: 72 h; 1 day high oxygen then 2 days room air (HO^rec) +RXD 10 mg/ml. On the procedure: FIG. 5A-5C. […] C. […] NS=not significant
Mast cell degranulation was assessed by measuring the release of β-hexosaminadase (β-hex), a classic indicator of mast cell degranulation (FIG. 5A) and Tryptase (FIG. 5B). […] This protocol was designed to mimic the clinical protocol of giving IPF patients hospitalized with acute exacerbations high oxygen then followed by return to room air.

The subject of assay [2] is smooth muscle actin (SMA). Put plainly: Western blot of smooth muscle actin (SMA) in lung fibroblasts. It counts as cell-based, human. As to conditions: Western blotting.
In the next assay the test system is UUO kidney. Put plainly: Unilateral ureteral obstruction (UUO) model of renal fibrosis, Masson's trichrome collagen staining. The class given is in vivo, Mice C57BL/6J. On the procedure: All animal treatments and experiments were approved by the Institutional Animal Care and Use Committee of Weill Cornell Medical College. Mice were anesthetized intraperitoneally with a cocktail of ketamine (90 mg/kg) and xylazine (4 mg/kg). Mice C57BL/6J) underwent right unilateral ureteral ligation with 4-0 silk suture through an abdominal midline incision under sterile conditions. Sham-operated control (CON) animals underwent identical operations, however, with manipulation of the right ureter only. Delivery of Roxadustat (10 mg/kg) on days 0, 2, 4, 6, 8, was administered IP. Mice were sacrificed on Day 14.
Kidneys were harvested and fixed in 10% neutral buffered formalin followed by embedding in paraffin. Sections (5 um) were collected and Masson's trichrome staining was performed using a kit (Richard-Allen Scientific) to detect collagen (blue stain). Slides of paraffinized tissue sections were deparaffinized, rehydrated, and washed in distilled water. Sections were subsequently stained using components from the trichrome kit and according to the manufacturer's protocol. After dehydrating and clearing in xylene, the sections were mounted with coverslips in Vectamount (Vector Laboratories). Tissue sections were examined with an inverted epifluorescence microscope (Nikon Eclipse TE 2000-U) interfaced to a SPOT Insight 2 megapixel color camera (Diagnostic Instruments).

In assay [3] the test system is human lung fibroblasts. Put plainly: Fibroblast migration/accumulation/foci formation in transwell plates. It counts as cell-based. As to conditions: qualitative; +TGF-β (10 ng/ml) +RXD (10 mg/ml).
The test system of the next assay is C-P4H. Put plainly: C-P4H abundance in stimulated human fibroblasts (immunofluorescence, Western blot). It counts as cell-based. As to conditions: for C-P4H immunofluorescence intensity: human fibroblasts exposed to TGF-β or mast cell exosomes. On the procedure: FIG. 9. Roxadustat inhibits the increase in C-[…] in stimulated human fibroblasts. Immunoexpression of prolyl-4-hydroxylase […]). […] FIG. 19A-19E. […] C. […] Actin was run as the loading control. […] All assays were performed in triplicate.
A general note: A western blot detects proteins with antibodies after separation by electrophoresis.

Another assay deals with c-P4H tetramer. Put plainly: Non-denaturing Western blot of human lung fibroblast homogenates probed for c-P4H α-subunit. The note with it: RXD 10 mg/ml; alone, +EXO, +TGF-β. It counts as cell-based. The protocol:
FIG. 4. […] Western blotting on a gradient gel was performed on human lung fibroblast homogenates in non-denaturing conditions and probed with anti-α-subunit monomer (60 kD). Tetramer is found at 240 kD at arrow.

The subject of assay [4] is bleomycin-induced pulmonary fibrosis. Put plainly: Bleomycin experimental mouse model of pulmonary fibrosis. It counts as in vivo, mice (C57BL/6J). The text has this: FIG. 11A-11B. In Vivo Murine Model of pulmonary fibrosis. […] Representative micrographs of Masson's trichrome-stained lungs from bleomycin-treated mice from the 14d time point. […] FIG. 12. […] Sal=Saline vehicle. FIG. 20A-20E. […] NS=not significant. N=5 mice/group. Scale bar=250 μm. […] Mice were sacrificed on day 21.

In assay [5] the test system is human lung fibroblasts. Put plainly: Collagen secretion by human lung fibroblasts (newly secreted collagen in supernatant, Sircol). It counts as cell-based. The note with it: for collagen secretion: RXD, normalized for total protein. The protocol: (§1) Human lung fibroblasts were exposed to TGF-β (10 ng/ml) or co-cultured with EXO([…]), and supernatants were collected for measurement of newly secreted collagen. […] Cell lysates were used to quantify total protein/well for normalization. Data are means±SEM of three separate experiments (n=3), each point run in triplicate. *P<0.05, ***P<0.001, ***P<0.0001.
(§2) FIG. 19A-19E. […] C. […] Actin was run as the loading control. […] All assays were performed in triplicate.
(FIG. 3A). All values presented are normalized for total protein.

The next assay has as its system HLF. Put plainly: Proline hydroxylation (LC-MC of extracted proteins) and hydroxyproline content in HLF. It counts as cell-based, human. On the procedure: as §2
Assay [6] deals with human lung fibroblasts. Description: Fibroblast proliferation by total protein content of fibroblast cell lysates. The class given is cell-based. The note with it: +RXD+TGF-β; control 0.800, +TGF-β 1.138. The protocol:
as §1

With `Cc1nc(C(=O)NCC(=O)O)c(O)c2ccc(Oc3ccccc3)cc12` [RXD], in [1], the “mast cell degranulation (β-hexosaminadase and mast cell tryptase in supernatants)” value is given as “decreases mast cell degranulation”. In addition, the SMA abundance result in assay [2] was “decreased”. Besides, in the assay with UUO kidney (Roxadustat 10 mg/kg IP days 0, 2, 4, 6, 8, Day 14), the “renal fibrosis, collagen staining of UUO kidney cortex and medulla” value was “lessened the fibrosis”. Also, the “quantified collagen (blue) staining, UUO kidney cortex and medulla” value in the assay with UUO kidney (pixel by pixel, P<0.0001 UUO vs UUO+RXD in cortex and in medulla) is listed as “Reduces Fibrosis”. Also, the “quantified collagen staining, control cortex and medulla with and without RXD” value in the assay on UUO kidney (sham control kidneys) was “no significant difference”. Besides, the “fibroblast migration, accumulation, and foci formation” value in the assay with human lung fibroblasts [3] was “prevents fibroblast migration, accumulation, and foci formation”. Also, the “C-P4H abundance in Western blots” value in the assay on C-P4H (HLF lysates +MC-EXO and +TGFβ, actin loading control) is “decreased C-P4H abundance”. For the same compound, the C-P4H immunofluorescence intensity result was “inhibited the increase in C-P4H fluorescence intensity” in the assay on C-P4H and “inhibits the increase in C-P4H” in the assay with C-P4H (listed as Roxadustat). The “α-subunit monomer abundance (60 kD band)” value with c-P4H tetramer was “increased the α-subunit monomer abundance in all cases”. In addition, the “severity of fibrosis, Masson's trichrome stained lungs” value in assay [4] (RXD 10 mg/kg days 7-19 every other day, sacrifice day 21) is reported as “lessened the severity of fibrosis”. The lung hydroxyproline content entry in [4] (RXD 10 mg/kg days 7-19 every other day, sacrifice day 21, P<0.01 Bleo versus Bleo+RXD) is “significantly decreased”. Also, in assay [4] (bleo vs bleo+RXD, P<0.05), the “number of mast cells in vivo in pulmonary fibrosis” value is on record as “reduced”. In addition, in [4] (bleomycin-induced decrease), the “lung compliance (pulmonary function tests)” value is “normalizes the bleomycin-induced decrease in lung compliance”. Also, in assay [4] (bleomycin-treated mice, 14d time point), the “pulmonary fibrosis, Masson's trichrome-stained lungs” value is given as “reduced”. For the same compound, the “secreted collagen (Sircol)” value in the assay with human lung fibroblasts [5] (FIG. 19E, HLF untreated and treated with +MC-EXO and +TGF-β) was “blocked”. Also, the collagen secretion entry in the assay with human lung fibroblasts [5] (fibroblasts co-cultured with mast cell exosomes (40 g/ml)), with human lung fibroblasts [5] (fibroblasts exposed to exogenous TGF-β1 (10 ng/ml)) and with human lung fibroblasts [5] (untreated fibroblasts) was “inhibits collagen secretion” throughout. Also, in the assay on HLF (LC-MC analysis of HLF extracted proteins), the “proline hydroxylation in collagens 1 and 3” value is given as “prevented proline hydroxylation”. Besides, the “hydroxyproline in HLFs” value with HLF (TGF-β-induced increase) was “inhibited the TGF-β-induced increase in hydroxyproline”. The “total protein content of fibroblast cell lysates (fibroblast proliferation)” value in the assay on human lung fibroblasts [6] came to 0.828 μg/ml/well.
